Square brackets hold non-standard residues; d marks the D form. Ends that are not written are not given here. Lys(Me3) = C[N+](C)(C)CCCC[C@H](N)C(=O)O
Target: T1, KDM4D (Homo sapiens, UniProt Q6B0I6)
T1 construct: KDM4AM1-L359,[38]; KDM4DM1-L359,[39]; KDM4EM1-R336,[30]; His6 (N); made in house; host or cells: Escherichia coli
T1 sequence (Q6B0I6 1-359): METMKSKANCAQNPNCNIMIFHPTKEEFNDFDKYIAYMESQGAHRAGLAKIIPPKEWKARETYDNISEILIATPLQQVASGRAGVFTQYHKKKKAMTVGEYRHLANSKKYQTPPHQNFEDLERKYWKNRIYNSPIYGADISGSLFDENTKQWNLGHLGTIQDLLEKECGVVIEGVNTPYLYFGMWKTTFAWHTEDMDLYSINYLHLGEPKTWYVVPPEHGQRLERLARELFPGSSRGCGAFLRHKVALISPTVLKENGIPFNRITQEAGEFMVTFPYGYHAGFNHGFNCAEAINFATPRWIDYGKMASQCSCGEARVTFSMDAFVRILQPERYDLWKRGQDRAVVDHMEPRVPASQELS
Assay: time-course 1H NMR assay of succinate production, KDM4D
Assay type: biochemical
Details: KDM4D 10 μM, 2OG 400 μM, peptide 400 μM; for oxidation of H1 peptide by KDM4D (succinate production arising from 2OG oxidation): 1H NMR 700 MHz, 298 K, Fe(II) 100 μM, L-ascorbate 1 mM, 50 mM Tris-d11 pH 7.5, 60 min, two independent experiments; for succinate production rate with KDM4D, relative: 1H NMR time course, pH 7.5, compared to H1.4K25me3
From the text: Fig. 6 Time-course ^1H NMR analysis for reactions of KDM4D with H1 peptides. (A) KDM4D-catalysed succinate production for H1.3K24me3 (turquoise), H1.4K25me3 (raspberry), and H1.5K26me3 (khaki) compared to that without peptides (black). (B) KDM4D in the presence of 2OG without the H1 peptide; note that only low-level succinate production is observed. (C) Production of succinate measured for KDM4D/H1.3K24me3 over time, as evidenced by increasing integration of the singlet at δ^1H 2.31 ppm (corresponding to the succinate methylenes). Assay conditions are described in the Experimental details section.
NMR spectra were acquired at 298 K using a Bruker AVIII 700 MHz NMR spectrometer equipped with a TCI helium-cooled CryoProbe. Data were processed using TopSpin v.3.6.2 software. Signal intensities were calibrated relative to TSP, δH 0 ppm, and the chemical shifts (ppm) are relative to the resonance of the solvent, δH 4.7 ppm. Assay mixtures contained KDM4D (10 μM), 2OG (400 μM), H1_20–34 peptide (400 μM), Fe(II) ammonium sulfate (100 μM), L-ascorbate (1 mM) and internal standard, 3-(trimethylsilyl)-2,2,3,3-tetradeuteropropionic acid (TSP, 800 μM) in 50 mM Tris-d11, pH 7.5. Aqueous stocks of 2OG, Fe(II) ammonium sulfate and L-ascorbate were prepared fresh on the day of testing. Samples were transferred to 3-mm diameter MATCH NMR tubes (CortecNet) and monitored by ^1H excitation sculpting with baseline optimisation using 16 transients. The time lapse between sample mixing and data acquisition was 6–7 min. The spectra were acquired every 2 min over 60 min. Starting material and product concentrations were quantified relative to the TSP concentration. Samples from two independent experiments were analysed by NMR spectroscopy.

Row | Substance | oxidation of H1 peptide by KDM4D (succinate production arising from 2OG oxidation) | succinate production rate with KDM4D, relative
1 | KKKAR[Lys(Me3)]SAGAAKRKA [Peptide H1.4K25me3, 15-mer linker histone H1.4 residues 20-34 peptide, tri-methylated K25] | clear evidence for oxidation | 
2 | KKKATK[Lys(Me3)]AAGAGAAK [Peptide H1.5K26me3, 15-mer linker histone H1.5 residues 20-34 peptide, tri-methylated K26] | clear evidence for oxidation | slightly slower succinate production compared to H1.4K25me3
3 | KKKA[Lys(Me3)]KAGATAGKRK [Peptide H1.3K24me3, 15-mer linker histone H1.3 residues 20-34 peptide, tri-methylated K24] | clear evidence for oxidation | slightly slower succinate production compared to H1.4K25me3

Reference: publication PMC12363342, “Investigating the N-terminal linker histone H1 subtypes as substrates for JmjC lysine demethylases” (RSC Chemical Biology, 2025)
